Assay [1] concerns the target T1, SSTR2 (Homo sapiens, UniProt P30874, N276A).
T1 construct: expressed in transfected cells; host or cells: HEK293F
The assay can be described thus: cAMP accumulation assay (agonist-induced inhibition of forskolin-stimulated cAMP), SSTR2, HEK293F.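 Note: transiently transfected cells exposed to 2 µM forskolin and a ligand concentration series for 40 min at room temperature in IBMX-containing HBSS, then cAMP quantified.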 The format is cell-based. The note with it: HEK293F; SSTR2 mutant N276^6.55A; mean ± SEM; read-out: Span. Background: cAMP levels reflect the balance of adenylyl cyclase and phosphodiesterase activity.
Experimental: (§1) HEK293F cells were transiently transfected with WT or mutant SSTR2/SSTR4 using transfection reagent (PEI MAX 2000, Polysciences) and incubated at 37 °C in 5% CO2. Forty-eight hours after transfection, cells were centrifuged and resuspended in stimulation buffer (Hanks’ balanced salt solution (HBSS) supplemented with 5 mM HEPES, 0.5 mM IBMX and 0.1% (w/v) bovine serum albumin (BSA), pH 7.4) to a density of 200,000 cells/mL and added to 384-well white plates (PerkinElmer, 1000 cells/well). cAMP accumulation was measured by a LANCE Ultra cAMP kit (PerkinElmer) according to the manufacturer’s instructions. In brief, transfected cells were incubated for 40 min in stimulation buffer with 2.5 μL forskolin (SSTR2: 2 μM; SSTR4: 4 μM) and gradient concentration of ligand at RT. The reactions were stopped by addition of lysis buffer containing 5 μL Eu-cAMP tracer and 5 μL ULight-anti-cAMP. Plates were then incubated for 60 min at RT and time-resolved FRET signals were measured at 620 nm and 665 nm by an EnVision multilabel plate reader (PerkinElmer). Data were analyzed in GraphPad PRISM 8 and all values were normalized to the WT for each ligand. All outcomes were repeated at least three times.
(§2) aMutants represent that mutations were introduced separately into the WT receptors and
(§3) transiently expressed in HEK 293F cells.
(§4) bThe EC50 ratio was shown as EC50(mutant)/EC50(WT), indicating the shift between the WT
(§5) and mutant curves, reflecting the effect of the mutations on receptor signaling.
(§6) cData are shown as mean ± S.E.M. from at least three independent experiments
(§7) performed in technical triplicate. One-way ANOVA was performed followed by
(§8) Dunnett’s post-test and compared with WT. The P value was defined as: *P<0.05;
(§9) d The span is defined as the window between the maximal agonists response (Emax) and
(§10) e Sample size; the number of independent experiments performed in technical triplicate.
(§11) f Receptor expression level of HEK 293F cells was determined independently by flow
(§12) cytometry with anti-FLAG antibody and shown as per cent compared to the WT.

Assay [2] has as its target T2, SSTR2 (Homo sapiens, UniProt P30874, K291A).
T2 construct: expressed in transfected cells; host or cells: HEK293F
The assay is described as above. In kind it is cell-based. As to conditions: HEK293F; SSTR2 mutant K291^7.32A; mean ± SEM; read-out: Span.
Experimental: as §1, §2, §3, §4, §5, §6, §7, §8, §9, §10, §11, §12

In assay [3] the target is T3, SSTR2 (Homo sapiens, UniProt P30874, Y205W).
T3 construct: expressed in transfected cells; host or cells: HEK293F
T3 sequence (P30874 whole entry Y205W): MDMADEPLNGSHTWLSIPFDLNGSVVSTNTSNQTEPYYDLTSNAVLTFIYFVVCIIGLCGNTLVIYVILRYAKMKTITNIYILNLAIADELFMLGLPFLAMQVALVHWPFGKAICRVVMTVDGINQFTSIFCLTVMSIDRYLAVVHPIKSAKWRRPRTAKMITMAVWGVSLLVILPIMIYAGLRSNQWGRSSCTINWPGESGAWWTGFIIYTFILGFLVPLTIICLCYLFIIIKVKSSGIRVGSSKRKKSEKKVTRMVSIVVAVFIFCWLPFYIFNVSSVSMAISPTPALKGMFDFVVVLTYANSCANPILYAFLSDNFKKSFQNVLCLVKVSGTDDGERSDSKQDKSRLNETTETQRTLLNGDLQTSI
Described as above. The format is cell-based. As to conditions: HEK293F; SSTR2 mutant Y205^5.35W; mean ± SEM; read-out: Span.
Experimental: as §1, §2, §3, §4, §5, §6, §7, §8, §9, §10, §11, §12

For assay [4], the target named is T4, SSTR2 (Homo sapiens, UniProt P30874, P286A).
T4 construct: expressed in transfected cells; host or cells: HEK293F
T4 sequence (P30874 whole entry P286A): as the sequence (P30874 whole entry Y205W) above, with W205Y, P286A counted along it
Described as above. As to conditions: HEK293F; SSTR2 mutant P286^ECL3A; mean ± SEM; read-out: Span. In kind it is cell-based.
Experimental: as §1, §2, §3, §4, §5, §6, §7, §8, §9, §10, §11, §12

For assay [5], the target named is T5, SSTR2 (Homo sapiens, UniProt P30874, F208A).
T5 construct: expressed in transfected cells; host or cells: HEK293F
T5 sequence (P30874 whole entry F208A): as the sequence (P30874 whole entry Y205W) above, with W205Y, F208A counted along it
Described as above. In kind it is cell-based. The note with it: HEK293F; SSTR2 mutant F208^5.38A; mean ± SEM; read-out: Span.
Experimental: as §1, §2, §3, §4, §5, §6, §7, §8, §9, §10, §11, §12

For assay [6], the target named is T6, SSTR2 (Homo sapiens, UniProt P30874, F294N).
T6 construct: expressed in transfected cells; host or cells: HEK293F
T6 sequence (P30874 whole entry F294N): as the sequence (P30874 whole entry Y205W) above, with W205Y, F294N counted along it
The assay is described as above. The format is cell-based. As to conditions: HEK293F; SSTR2 mutant F294^7.35N; mean ± SEM; read-out: Span.
Experimental: as §1, §2, §3, §4, §5, §6, §7, §8, §9, §10, §11, §12

The target of assay [7] is T7, SSTR2 (Homo sapiens, UniProt P30874, V298A).
T7 construct: expressed in transfected cells; host or cells: HEK293F
T7 sequence (P30874 whole entry V298A): as the sequence (P30874 whole entry Y205W) above, with W205Y, V298A counted along it
The assay is described as above. In kind it is cell-based. The note with it: HEK293F; SSTR2 mutant V298^7.39A; mean ± SEM; read-out: Span.
Experimental: as §1, §2, §3, §4, §5, §6, §7, §8, §9, §10, §11, §12

Assay [8] addresses T8, SSTR2 (Homo sapiens, UniProt P30874, I284A).
T8 construct: expressed in transfected cells; host or cells: HEK293F
The assay is described as above. In kind it is cell-based. The note with it: HEK293F; SSTR2 mutant I284^ECL3A; mean ± SEM; read-out: Span.
Experimental: as §1, §2, §3, §4, §5, §6, §7, §8, §9, §10, §11, §12

In assay [9] the target is T9, SSTR2 (Homo sapiens, UniProt P30874, S192A).
T9 construct: expressed in transfected cells; host or cells: HEK293F
T9 sequence (P30874 whole entry S192A): as the sequence (P30874 whole entry Y205W) above, with S192A, W205Y counted along it
Described as above. As to conditions: HEK293F; SSTR2 mutant S192^ECL2A; mean ± SEM; read-out: Span. In kind it is cell-based.
Experimental: as §1, §2, §3, §4, §5, §6, §7, §8, §9, §10, §11, §12

For assay [10], the target named is T10, SSTR2 (Homo sapiens, UniProt P30874, Q102A). Put plainly: Whole cell binding assay, SSTR2, competition with 125I-Tyr11-SST14, CHO-K1.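 For all read-outs here: Cell-bound radioactivity in lysed CHO-K1 cells read by scintillation counting, each mutation introduced singly into the WT receptor, at least three independent experiments run in technical triplicate.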 As to conditions: for Emax: CHO-K1, read-out: Span.
T10 sequence (P30874 whole entry Q102A): as the sequence (P30874 whole entry Y205W) above, with Q102A, W205Y counted along it
Experimental: (§13) For SSTR2 and SSTR4, CHO-K1 cells were cultured in F12 medium with 10% FBS and seeded at a density of 30,000 cells/well in Isoplate-96 plates (PerkinElmer). Twenty-four hours after transfection with the WT or mutant SSTR2/SSTR4, CHO-K1 cells were washed twice and incubated with blocking buffer (F12 supplemented with 25 mM HEPES and 0.1% (w/v) BSA, pH 7.4) for 2 h at 37 °C. […] Following incubation, cells were washed three times with ice-cold PBS and lysed by 50 μL lysis buffer (PBS supplemented with 20 mM Tris-HCl, 1% Triton X-100, pH 7.4). The radioactivity was subsequently counted (counts/min, CPM) in a scintillation counter (MicroBeta[2] Plate Counter, PerkinElmer) using a scintillation cocktail (OptiPhaseSuperMix, PerkinElmer). Data were analyzed by nonlinear regression using GraphPad PRISM 8.
(§14) aMutants represent that all mutations were introduced separately into the WT receptors
and expressed in CHO K1 cells.
(§15) bThe IC50 ratio was shown as IC50(mutant)/IC50(WT), indicating the shift between the WT
(§16) and mutant curves, reflecting the effect of the mutations on ligand binding.
(§17) cData are shown as mean ± S.E.M. form at least three independent experiments
as §7
(§18) Dunnett’s post-test and compared with WT.
as §9, §10
The target of assay [11] is T11, SSTR2 (Homo sapiens, UniProt P30874, Y302A). Described as above. The note with it: CHO-K1, read-out: Span.
T11 sequence (P30874 whole entry Y302A): as the sequence (P30874 whole entry Y205W) above, with W205Y, Y302A counted along it
Experimental: as §13, §14
and expressed in CHO K1 cells.
as §15, §16, §17, §7, §18, §9, §10
Assay [12] addresses T12, SSTR2 (Homo sapiens, UniProt P30874, F294A). The assay is described as above. The note with it: for Emax: CHO-K1, read-out: Span.
Experimental: as §13, §14
and expressed in CHO K1 cells.
as §15, §16, §17, §7, §18, §9, §10
Assay [13] addresses T13, SSTR2 (Homo sapiens, UniProt P30874, D122A). The description is as above. As to conditions: CHO-K1, read-out: Span.
Experimental: as §13, §14
and expressed in CHO K1 cells.
as §15, §16, §17, §7, §18, §9, §10
In assay [14] the target is T14, SSTR2 (Homo sapiens, UniProt P30874, F272A). Described as above. As to conditions: for Emax: CHO-K1, read-out: Span.
T14 sequence (P30874 whole entry F272A): as the sequence (P30874 whole entry Y205W) above, with W205Y, F272A counted along it
Experimental: as §13, §14
and expressed in CHO K1 cells.
as §15, §16, §17, §7, §18, §9, §10
Assay [15] addresses T15, SSTR2 (Homo sapiens, UniProt P30874). The description is as above. The note with it: for Emax: CHO-K1, read-out: Span.
Experimental: as §13, §14
and expressed in CHO K1 cells.
as §15, §16, §17, §7, §18, §9, §10
Assay [16] concerns the target SSTR2 (Homo sapiens, UniProt P30874, Y205A). Described as above. The note with it: CHO-K1, read-out: Span.
Experimental: as §13, §14
and expressed in CHO K1 cells.
as §15, §16, §17, §7, §18, §9, §10
The target of assay [17] is SSTR2 (Homo sapiens, UniProt P30874, F275A). The assay is described as above. The note with it: for Emax: CHO-K1, read-out: Span.
SSTR2 (Homo sapiens, UniProt P30874, F275A), sequence (P30874 whole entry F275A): as the sequence (P30874 whole entry Y205W) above, with W205Y, F275A counted along it
Experimental: as §13, §14
and expressed in CHO K1 cells.
as §15, §16, §17, §7, §18, §9, §10
Assay [18] deals with T16, SSTR2 (Homo sapiens, UniProt P30874, Q126A). The assay is described as above. As to conditions: for Emax: CHO-K1, read-out: Span.
T16 sequence (P30874 whole entry Q126A): as the sequence (P30874 whole entry Y205W) above, with Q126A, W205Y counted along it
Experimental: as §13, §14
and expressed in CHO K1 cells.
as §15, §16, §17, §7, §18, §9, §10
Assay [19] concerns the target T10, SSTR2. The assay can be described thus: cAMP accumulation assay (agonist-induced inhibition of forskolin-stimulated cAMP), SSTR2, HEK293F.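 Note: transiently transfected cells exposed to 2 µM forskolin and a ligand concentration series for 40 min at room temperature in IBMX-containing HBSS, then cAMP quantified.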 The format is cell-based. Also on record: expressed in transfected cells; host or cells: HEK293F. As to conditions: HEK293F; SSTR2 mutant Q102^2.63A; mean ± SEM; read-out: Span.
Experimental: as §1, §2, §3, §4, §5, §6, §7, §8, §9, §10, §11, §12
Assay [20] concerns the target T11, SSTR2. The description is as above. The format is cell-based. Also on record: expressed in transfected cells; host or cells: HEK293F. As to conditions: HEK293F; SSTR2 mutant Y302^7.43A; mean ± SEM; read-out: Span.
Experimental: as §1, §2, §3, §4, §5, §6, §7, §8, §9, §10, §11, §12
For assay [21], the target named is T12, SSTR2. Described as above. The note with it: HEK293F; SSTR2 mutant F294^7.35A; mean ± SEM; read-out: Span. Also on record: expressed in transfected cells; host or cells: HEK293F. In kind it is cell-based.
Experimental: as §1, §2, §3, §4, §5, §6, §7, §8, §9, §10, §11, §12
In assay [22] the target is SSTR2 (Homo sapiens, UniProt P30874, T212A). The description is as above. In kind it is cell-based. Also on record: expressed in transfected cells; host or cells: HEK293F. The note with it: HEK293F; SSTR2 mutant T212^5.42A; mean ± SEM; read-out: Span.
SSTR2 (Homo sapiens, UniProt P30874, T212A), sequence (P30874 whole entry T212A): as the sequence (P30874 whole entry Y205W) above, with W205Y, T212A counted along it
Experimental: as §1, §2, §3, §4, §5, §6, §7, §8, §9, §10, §11, §12
For assay [23], the target named is T13, SSTR2. The description is as above. In kind it is cell-based. Also on record: expressed in transfected cells; host or cells: HEK293F. The note with it: HEK293F; SSTR2 mutant D122^3.32A; mean ± SEM; read-out: Span.
Experimental: as §1, §2, §3, §4, §5, §6, §7, §8, §9, §10, §11, §12
The target in assay [24] is SSTR2 (Homo sapiens, UniProt P30874, T194A). Described as above. Also on record: expressed in transfected cells; host or cells: HEK293F. The note with it: HEK293F; SSTR2 mutant T194^ECL2A; mean ± SEM; read-out: Span. In kind it is cell-based.
SSTR2 (Homo sapiens, UniProt P30874, T194A), sequence (P30874 whole entry T194A): as the sequence (P30874 whole entry Y205W) above, with T194A, W205Y counted along it
Experimental: as §1, §2, §3, §4, §5, §6, §7, §8, §9, §10, §11, §12
The target of assay [25] is T14, SSTR2. The description is as above. In kind it is cell-based. Also on record: expressed in transfected cells; host or cells: HEK293F. As to conditions: HEK293F; SSTR2 mutant F272^6.51A; mean ± SEM; read-out: Span.
Experimental: as §1, §2, §3, §4, §5, §6, §7, §8, §9, §10, §11, §12
Assay [26] has as its target T15, SSTR2. The assay is described as above. The note with it: HEK293F; WT SSTR2; window between Emax and vehicle; mean ± SEM; read-out: Span. Also on record: expressed in transfected cells; host or cells: HEK293F. The format is cell-based.
Experimental: as §1, §2, §3, §4, §5, §6, §7, §8, §9, §10, §11, §12
In assay [27] the target is T16, SSTR2. The assay is described as above. The format is cell-based. Details: expressed in transfected cells; host or cells: HEK293F. As to conditions: HEK293F; SSTR2 mutant Q126^3.36A; mean ± SEM; read-out: Span.
Experimental: as §1, §2, §3, §4, §5, §6, §7, §8, §9, §10, §11, §12
In assay [28] the target is SSTR2 (Homo sapiens, UniProt P30874, S42A). The assay can be described thus: Whole cell binding assay, SSTR2, competition with 125I-Tyr11-SST14, CHO-K1.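 Note: Cell-bound radioactivity in lysed CHO-K1 cells read by scintillation counting, each mutation introduced singly into the WT receptor, at least three independent experiments run in technical triplicate.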
SSTR2 (Homo sapiens, UniProt P30874, S42A), sequence (P30874 whole entry S42A): as the sequence (P30874 whole entry Y205W) above, with S42A, W205Y counted along it
Experimental: as §13, §14
and expressed in CHO K1 cells.
as §15, §16, §17, §7, §18, §9, §10
The target of assay [29] is SSTR2 (Homo sapiens, UniProt P30874, D295A). The description is as above.
SSTR2 (Homo sapiens, UniProt P30874, D295A), sequence (P30874 whole entry D295A): as the sequence (P30874 whole entry Y205W) above, with W205Y, D295A counted along it
Experimental: as §13, §14
and expressed in CHO K1 cells.
as §15, §16, §17, §7, §18, §9, §10
Assay [30] concerns the target SSTR2 (Homo sapiens, UniProt P30874, N43A). Described as above.
Experimental: as §13, §14
and expressed in CHO K1 cells.
as §15, §16, §17, §7, §18, §9, §10

Consider two compounds from PMC9343605, “Structural insights into ligand recognition and selectivity of somatostatin receptors” (Cell Research, 2022).

T13 sequence (P30874 whole entry D122A): as the sequence (P30874 whole entry Y205W) above, with D122A, W205Y counted along it
T15 sequence (P30874 whole entry): as the sequence (P30874 whole entry Y205W) above, with W205Y counted along it
T12 sequence (P30874 whole entry F294A): as the sequence (P30874 whole entry Y205W) above, with W205Y, F294A counted along it
SSTR2 (Homo sapiens, UniProt P30874, N43A), sequence (P30874 whole entry N43A): as the sequence (P30874 whole entry Y205W) above, with N43A, W205Y counted along it
SSTR2 (Homo sapiens, UniProt P30874, Y205A), sequence (P30874 whole entry Y205A): as the sequence (P30874 whole entry Y205W) above, with W205A counted along it
T8 sequence (P30874 whole entry I284A): as the sequence (P30874 whole entry Y205W) above, with W205Y, I284A counted along it
T2 sequence (P30874 whole entry K291A): as the sequence (P30874 whole entry Y205W) above, with W205Y, K291A counted along it
T1 sequence (P30874 whole entry N276A): as the sequence (P30874 whole entry Y205W) above, with W205Y, N276A counted along it

With `C[C@@H](O)[C@@H]1NC(=O)[C@H](CCCCN)NC(=O)[C@@H](Cc2c[nH]c3ccccc23)NC(=O)[C@H](Cc2ccccc2)NC(=O)[C@@H](NC(=O)[C@H](N)Cc2ccccc2)CSSC[C@@H](C(=O)N[C@H](CO)[C@@H](C)O)NC1=O` [Octreotide], the Emax at SSTR2 [1] was 75 ± 9%; at SSTR2 [2] it was 103 ± 8%; at SSTR2 [3], 97 ± 10%; at SSTR2 [4] it was 72 ± 8%; on SSTR2 [5], 128 ± 8%; on SSTR2 [6] it was 47 ± 9%. Further, the Emax at SSTR2 [7] was 127 ± 4%; at SSTR2 [8] it was 58 ± 8%; at SSTR2 [9] it was 146 ± 13%; at SSTR2 [10] it was 27 ± 4%; on SSTR2 [11] it was 18 ± 7%; at SSTR2 [12], 28 ± 9%. For the same compound, the Emax was found to be 16 ± 7% at SSTR2 [13]; 26 ± 6% on SSTR2 [14]; 100 ± 7% at SSTR2 [15]; 60 ± 5% on SSTR2 [16]; 51 ± 4% at SSTR2 [17]; 16 ± 8% at SSTR2 [18]. Moreover, the Emax on SSTR2 [19] is 30 ± 5%; on SSTR2 [20], 147 ± 12%; at SSTR2 [21], 123 ± 10%; on SSTR2 [22], 90 ± 10%; at SSTR2 [23], 16 ± 4%; at SSTR2 [24] it was 125 ± 7%. Further, the Emax is 134 ± 17% on SSTR2 [25], 100 ± 4% on SSTR2 [26] and 101 ± 7% on SSTR2 [27].
As to `CC(=O)N[C@@H](Cc1ccc([N+](=O)[O-])cc1)C(=O)N[C@@H]1CSSC[C@@H](C(=O)N[C@H](Cc2ccc(O)cc2)C(N)=O)NC(=O)[C@H]([C@@H](C)O)NC(=O)[C@H](CCCCN)NC(=O)[C@@H](Cc2c[nH]c3ccccc23)NC(=O)[C@H](Cc2ccc(O)cc2)NC1=O` [CYN 154806], the IC50 (commonly the point on the concentration scale where inhibition reaches its midpoint) was 20.4 nM on SSTR2 [10]; 21.9 nM at SSTR2 [12]; 2.75 nM on SSTR2 [28]; 3.55 nM at SSTR2 [29]; 23.4 nM on SSTR2 [14]; 4.37 nM at SSTR2 [15]. The IC50 was 8.13 nM on SSTR2 [30], 21.9 nM on SSTR2 [17] and 135 nM at SSTR2 [18]. Further, the Emax turned out to be 24 ± 5% on SSTR2 [10]; 15 ± 5% at SSTR2 [11]; 36 ± 6% on SSTR2 [12]; 145 ± 9% on SSTR2 [28] (CHO-K1, read-out: Span); 20 ± 2% at SSTR2 [13]; 62 ± 6% at SSTR2 [29] (CHO-K1, read-out: Span). Besides, the Emax at SSTR2 [14] was determined as 21 ± 6%; on SSTR2 [15] it was 100 ± 6%; at SSTR2 [30] (CHO-K1, read-out: Span), 96 ± 8%; on SSTR2 [17] it was 69 ± 7%; at SSTR2 [18], 25 ± 4%.
